Experiments:
Assay in all cases: Antibiotic Sensitivity
Format in all cases: cell-based
[1] = system: Coliform 518; further: key: R: resistant; S: sensitive; SS: slightly sensitive
[2] = system: Staph. albus 473; further: key: R: resistant; S: sensitive; SS: slightly sensitive
[3] = system: Ps. multivorans MB; further: key: R: resistant; S: sensitive; SS: slightly sensitive
[4] = system: Proteus 20531
[5] = system: Kleb. aerogenes 22352; further: key: R: resistant; S: sensitive; SS: slightly sensitive
[6] = system: Pr. miribilis 25702; further: key: R: resistant; S: sensitive; SS: slightly sensitive
[7] = system: Staph. albus 476; further: key: R: resistant; S: sensitive; SS: slightly sensitive
[8] = system: Ps. multivorans BS; further: key: R: resistant; S: sensitive; SS: slightly sensitive
[9] = system: Ps. aeruginosa 1999; further: key: R: resistant; S: sensitive; SS: slightly sensitive
[10] = system: Proteus 371
[11] = system: Proteus 20523
[12] = system: Candida albicans; further: key: R: resistant; S: sensitive; SS: slightly sensitive
[13] = system: Staph. albus 479; further: key: R: resistant; S: sensitive; SS: slightly sensitive
[14] = system: Coliform 578; further: key: R: resistant; S: sensitive; SS: slightly sensitive
[15] = system: Strep. faecalis 20190; further: key: R: resistant; S: sensitive; SS: slightly sensitive
[16] = system: Ps. aeruginosa 5267; further: key: R: resistant; S: sensitive; SS: slightly sensitive
[17] = system: E. coli 9395; further: key: R: resistant; S: sensitive; SS: slightly sensitive
[18] = system: Proteus 20522
[19] = system: Strep. faecalia 559; further: key: R: resistant; S: sensitive; SS: slightly sensitive
[20] = system: Staph. aureus 590; further: key: R: resistant; S: sensitive; SS: slightly sensitive
[21] = system: Proteus 20029
[22] = system: Serratia marcescens; further: key: R: resistant; S: sensitive; SS: slightly sensitive
[23] = system: E. coli 559; further: key: R: resistant; S: sensitive; SS: slightly sensitive
[24] = system: E. coli 566; further: key: R: resistant; S: sensitive; SS: slightly sensitive
[25] = system: E. coli 026; further: key: R: resistant; S: sensitive; SS: slightly sensitive
[26] = system: Staph. pyogenes; further: key: R: resistant; S: sensitive; SS: slightly sensitive
[27] = system: Staph. aureus 20477; further: key: R: resistant; S: sensitive; SS: slightly sensitive
[28] = system: Staph. aureus 7447; further: key: R: resistant; S: sensitive; SS: slightly sensitive
[29] = system: Pr. mirabilis 25942
[30] = system: Staph. albus 474; further: key: R: resistant; S: sensitive; SS: slightly sensitive
[31] = system: Pr. rettgeri 7475; further: key: R: resistant; S: sensitive; SS: slightly sensitive
[32] = system: Coliform 608; further: key: R: resistant; S: sensitive; SS: slightly sensitive
[33] = system: Pr. mirabilis 5887
[34] = system: Pr. vulgaris 4635; further: key: R: resistant; S: sensitive; SS: slightly sensitive
[35] = system: E. coli 604; further: key: R: resistant; S: sensitive; SS: slightly sensitive
[36] = system: Kleb, acrogenes 8172; further: key: R: resistant; S: sensitive; SS: slightly sensitive

Structure (SMILES)	Antibiotic Sensitivity [1]	Antibiotic Sensitivity [2]	Antibiotic Sensitivity [3]	Antibiotic Sensitivity [5]	Antibiotic Sensitivity [6]	Antibiotic Sensitivity [7]	Antibiotic Sensitivity [8]	Antibiotic Sensitivity [9]	Antibiotic Sensitivity [12]	Antibiotic Sensitivity [13]	Antibiotic Sensitivity [14]	Antibiotic Sensitivity [15]	Antibiotic Sensitivity [16]	Antibiotic Sensitivity [17]	Antibiotic Sensitivity [19]	Antibiotic Sensitivity [20]	Antibiotic Sensitivity [22]	Antibiotic Sensitivity [23]	Antibiotic Sensitivity [24]	Antibiotic Sensitivity [25]	also measured
Oc1ccc(Cl)c2cccnc12 [CHQ, 5-chloro-8-hydroxyquinoline]	S	S	S	S	S	S	S	R	S	S	S	S	R	S	S	S	S	S	S	S	Antibiotic Sensitivity [4]: S; Antibiotic Sensitivity [10]: S; Antibiotic Sensitivity [11]: S; Antibiotic Sensitivity [18]: S; Antibiotic Sensitivity [21]: S; Antibiotic Sensitivity [26]: S; Antibiotic Sensitivity [27]: S; Antibiotic Sensitivity [28]: S; Antibiotic Sensitivity [29]: S; Antibiotic Sensitivity [30]: S; Antibiotic Sensitivity [31]: S; Antibiotic Sensitivity [32]: S; Antibiotic Sensitivity [33]: S; Antibiotic Sensitivity [34]: S; Antibiotic Sensitivity [35]: S; Antibiotic Sensitivity [36]: S
CN(C)[C@@H]1C(=O)C(C(N)=O)=C(O)[C@@]2(O)C(=O)C3=C(O)c4c(O)cccc4[C@@](C)(O)[C@H]3C[C@@H]12 [Tetracycline, tetracycline]	S	R	S	S	S	R	S	S	R	R	S	R	S	S	R	R	S	S	S	R	Antibiotic Sensitivity [26]: R; Antibiotic Sensitivity [27]: R; Antibiotic Sensitivity [28]: S; Antibiotic Sensitivity [30]: R; Antibiotic Sensitivity [31]: S; Antibiotic Sensitivity [32]: S; Antibiotic Sensitivity [34]: S; Antibiotic Sensitivity [35]: S; Antibiotic Sensitivity [36]: S
